In ChEMBL document CHEMBL4257462, “Benzisoxazole: a privileged scaffold for medicinal chemistry” (Medchemcomm, 2017):
Values after ≈ are worked out from the molar mass of the structure shown.

Experiments:
[1] = system: Mycobacterium tuberculosis; assay: Antimycobacterial activity against Mycobacterium tuberculosis H37Rv; type: functional
[2] = biological target: 5-hydroxytryptamine receptor 2A (Rattus norvegicus, UniProt P14842); assay: Displacement of [3H]ketanserin from 5-HT2A receptor in rat frontal cortex membranes; type: cell membranes, Membrane
5-hydroxytryptamine receptor 2A, sequence (P14842 whole entry): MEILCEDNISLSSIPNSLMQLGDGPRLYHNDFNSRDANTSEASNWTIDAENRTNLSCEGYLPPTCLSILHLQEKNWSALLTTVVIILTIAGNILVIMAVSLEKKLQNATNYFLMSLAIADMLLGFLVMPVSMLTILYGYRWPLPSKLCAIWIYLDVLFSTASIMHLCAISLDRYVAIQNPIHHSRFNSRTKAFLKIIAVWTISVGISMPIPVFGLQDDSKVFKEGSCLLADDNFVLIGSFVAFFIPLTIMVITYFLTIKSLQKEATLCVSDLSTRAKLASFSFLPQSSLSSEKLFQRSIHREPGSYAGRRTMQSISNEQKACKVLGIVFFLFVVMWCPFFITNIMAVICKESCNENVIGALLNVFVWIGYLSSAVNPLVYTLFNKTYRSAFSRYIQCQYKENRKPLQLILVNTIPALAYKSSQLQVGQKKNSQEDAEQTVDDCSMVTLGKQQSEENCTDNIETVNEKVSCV

D(2) dopamine receptor = D(2) dopamine receptor (Rattus norvegicus, UniProt P61169); assay: Displacement of [3H]methylspiperone from D2 receptor in rat striatal membranes; type: cell membranes, Striatum, Membrane
D(2) dopamine receptor, sequence (P61169 whole entry): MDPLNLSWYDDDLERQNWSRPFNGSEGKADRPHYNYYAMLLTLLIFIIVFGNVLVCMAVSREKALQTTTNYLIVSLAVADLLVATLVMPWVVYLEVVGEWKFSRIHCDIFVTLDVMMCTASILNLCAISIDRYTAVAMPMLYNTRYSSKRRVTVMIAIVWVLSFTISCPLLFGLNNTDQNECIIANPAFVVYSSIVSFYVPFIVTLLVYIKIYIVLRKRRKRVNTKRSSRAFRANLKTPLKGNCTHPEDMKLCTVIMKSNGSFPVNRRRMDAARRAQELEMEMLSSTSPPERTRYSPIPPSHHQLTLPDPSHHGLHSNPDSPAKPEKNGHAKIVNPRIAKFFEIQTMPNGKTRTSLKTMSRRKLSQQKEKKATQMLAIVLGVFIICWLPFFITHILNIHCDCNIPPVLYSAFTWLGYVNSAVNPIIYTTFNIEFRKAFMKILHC

Geotrichum candidum = assay: Antimicrobial activity against Geotrichum candidum; type: functional
HepG2 = assay: Growth inhibition of human HepG2 cells after 24 hrs by MTT assay relative to control; type: functional
Acetylcholinesterase [3] = biological target: T1, Acetylcholinesterase (Rattus norvegicus, UniProt P37136); assay: Inhibition of rat brain AChE
T1 sequence (P37136 whole entry): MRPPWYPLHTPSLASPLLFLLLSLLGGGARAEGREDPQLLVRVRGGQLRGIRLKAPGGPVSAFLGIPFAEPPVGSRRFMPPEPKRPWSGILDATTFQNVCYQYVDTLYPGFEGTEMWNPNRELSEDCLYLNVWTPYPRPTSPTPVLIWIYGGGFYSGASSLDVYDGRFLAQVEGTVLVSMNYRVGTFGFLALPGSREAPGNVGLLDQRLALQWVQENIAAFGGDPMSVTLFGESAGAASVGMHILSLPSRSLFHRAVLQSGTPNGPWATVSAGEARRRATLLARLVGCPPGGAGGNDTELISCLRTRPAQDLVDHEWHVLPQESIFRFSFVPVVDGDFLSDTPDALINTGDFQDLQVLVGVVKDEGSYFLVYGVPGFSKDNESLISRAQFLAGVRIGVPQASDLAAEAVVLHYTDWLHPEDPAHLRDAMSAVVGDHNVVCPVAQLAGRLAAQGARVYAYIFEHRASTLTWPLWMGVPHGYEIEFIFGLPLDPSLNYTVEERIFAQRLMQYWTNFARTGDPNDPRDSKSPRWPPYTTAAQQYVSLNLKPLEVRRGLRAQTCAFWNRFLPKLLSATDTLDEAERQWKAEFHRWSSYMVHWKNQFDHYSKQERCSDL

Acetylcholinesterase [4] = biological target: Acetylcholinesterase (Homo sapiens, UniProt P22303); assay: Inhibition of human serum AChE
Acetylcholinesterase (Homo sapiens, UniProt P22303), sequence (P22303 whole entry): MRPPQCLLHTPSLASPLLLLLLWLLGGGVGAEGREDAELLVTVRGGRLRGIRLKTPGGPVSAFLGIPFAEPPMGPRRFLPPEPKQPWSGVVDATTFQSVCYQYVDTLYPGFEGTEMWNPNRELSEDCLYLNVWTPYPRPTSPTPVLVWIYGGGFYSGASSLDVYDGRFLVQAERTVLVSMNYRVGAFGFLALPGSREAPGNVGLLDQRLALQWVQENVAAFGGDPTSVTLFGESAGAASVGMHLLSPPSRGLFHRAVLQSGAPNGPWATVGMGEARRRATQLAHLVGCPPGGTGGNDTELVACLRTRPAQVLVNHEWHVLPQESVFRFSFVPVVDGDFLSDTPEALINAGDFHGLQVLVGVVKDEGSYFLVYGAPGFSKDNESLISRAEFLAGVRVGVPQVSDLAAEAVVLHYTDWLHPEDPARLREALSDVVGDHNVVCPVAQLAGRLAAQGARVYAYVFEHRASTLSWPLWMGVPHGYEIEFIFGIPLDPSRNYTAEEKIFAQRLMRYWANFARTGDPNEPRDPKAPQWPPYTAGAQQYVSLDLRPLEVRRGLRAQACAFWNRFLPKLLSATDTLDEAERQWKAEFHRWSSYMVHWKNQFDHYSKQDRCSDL

Acetylcholinesterase [5] = biological target: Acetylcholinesterase (Electrophorus electricus, UniProt O42275); assay: Inhibition of electric eel AChE
Acetylcholinesterase (Electrophorus electricus, UniProt O42275), sequence (O42275 whole entry): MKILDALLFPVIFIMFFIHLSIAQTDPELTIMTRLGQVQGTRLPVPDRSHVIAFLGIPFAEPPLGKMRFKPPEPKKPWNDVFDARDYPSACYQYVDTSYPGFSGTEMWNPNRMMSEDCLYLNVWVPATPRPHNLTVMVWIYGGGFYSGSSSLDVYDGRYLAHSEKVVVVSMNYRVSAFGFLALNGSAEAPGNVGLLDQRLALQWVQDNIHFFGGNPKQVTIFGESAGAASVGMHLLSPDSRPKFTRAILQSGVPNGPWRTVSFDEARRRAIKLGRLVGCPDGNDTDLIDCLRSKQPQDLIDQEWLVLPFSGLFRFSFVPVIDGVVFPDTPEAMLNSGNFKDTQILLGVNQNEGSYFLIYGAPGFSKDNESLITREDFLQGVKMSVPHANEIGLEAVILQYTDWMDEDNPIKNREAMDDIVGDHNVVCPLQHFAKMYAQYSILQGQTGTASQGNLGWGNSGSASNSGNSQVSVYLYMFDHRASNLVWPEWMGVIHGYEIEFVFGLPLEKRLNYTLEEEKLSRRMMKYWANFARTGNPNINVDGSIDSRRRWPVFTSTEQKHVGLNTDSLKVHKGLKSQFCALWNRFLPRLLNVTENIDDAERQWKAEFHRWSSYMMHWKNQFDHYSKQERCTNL

[6] = Inhibition of urease (unknown origin)

O=S(=O)(c1ccccc1)N1CCN(c2noc3ccccc23)CC1
MIC [1]: 3.25 µg/mL (≈ 9.46 µM)

Cc1ccc(S(=O)(=O)N2CCN(c3noc4cccc(Cl)c34)CC2)cc1
MIC [1]: 6.25 µg/mL (≈ 15.9 µM)

O=C1c2ccc(OCCCN3CCC(c4noc5cc(F)ccc45)CC3)cc2OCC1CO (centres undefined)
IC50 [2]: 6.2 nM
IC50 (D(2) dopamine receptor): 17 nM

O=C(c1ccccc1)N(C(=O)c1ccccc1)c1onc2ccccc12
MIC (Geotrichum candidum): 584 µM (≈ 200 µg/mL)

O=C(c1c(F)cccc1F)N1CCC(c2noc3cc(F)ccc23)CC1
growth inhibition (GI) (HepG2): 42.06%

Fc1ccc2c(C3CCN(CCN4CCCC4)CC3)noc2c1
IC50 (Acetylcholinesterase [3]): 5300 nM
IC50 (Acetylcholinesterase [4]): 3290 nM
IC50 (Acetylcholinesterase [5]): 2510 nM

O=C(N1CCCC1)N1CCC(c2noc3cc(F)ccc23)CC1
growth inhibition (GI) (HepG2): 39.19%

CCCN1C(=O)C(C)c2cc(C(=O)CN3CCN(c4noc5cc(Cl)ccc45)CC3)ccc21 (centres undefined)
MIC [1]: 3.12 µg/mL (≈ 6.68 µM)

COc1ccc(NC(=S)NC(Cc2ccccc2)C(=O)N2CCCC2C(=O)N2CCC(c3noc4cc(F)ccc34)CC2)cc1 (centres undefined)
IC50 [6]: 4900 nM

O=C(c1ccccc1)c1onc2ccccc12
MIC (Geotrichum candidum): 44.8 µM (≈ 10 µg/mL)

Fc1ccc2c(C3CCN(CCN4CCCCC4)CC3)noc2c1
IC50 (Acetylcholinesterase [3]): 1290 nM
IC50 (Acetylcholinesterase [4]): 2220 nM
IC50 (Acetylcholinesterase [5]): 1500 nM

CCCN1C(=O)Cc2cc(C(=O)CN3CCN(c4noc5ccccc45)CC3)ccc21
MIC [1]: 3.12 µg/mL (≈ 7.46 µM)

O=C(Nc1ccccc1)c1onc2ccccc12
MIC (Geotrichum candidum): 840 µM (≈ 200 µg/mL)

O=C(N1CCOCC1)N1CCC(c2noc3cc(F)ccc23)CC1
growth inhibition (GI) (HepG2): 37.75%
